These results are taken from article PMC8734228 (Cancer discovery, 2021).

pEC50: −log10 of the molar value.

For orientation: pEC50 means −log10 of the EC50, conventionally taken in molar units.

For the first series, the system named is FLC PDX cells. Briefly: Validation screen on cells dissociated from FLC PDX. Format: cell-based, human. As to conditions: 10nM-10μM, 72 h, FLC1-6.
Turning to `COc1ccc(S(=O)(=O)Nc2cc(-c3c(O)ccc4ccccc34)c(O)c3ccccc23)cc1` [C188-9], the “Effect on FLC PDX cells in vitro (dose response, normalized percent survival)” value is listed as “no effect”.

For `C#Cc1cccc(Nc2ncnc3cc(OCCOC)c(OCCOC)cc23)c1` [Erlotinib], the “Effect on FLC PDX cells in vitro (dose response, normalized percent survival)” value is “no effect”.

`CC1(C)C=C(CN2C/C(=C\c3ccc(F)cc3)C(=O)/C(=C/c3ccc(F)cc3)C2)C(C)(C)N1O` [HO3867]: the “Effect on FLC PDX cells in vitro (dose response, normalized percent survival)” value is recorded as “no effect”.

On to `Clc1ccc(N/N=C(\c2ccccc2)c2ccccn2)nc1` [JIB-04], for which the “Effect on FLC PDX cells in vitro (dose response, normalized percent survival)” value is listed as “effective against all PDX lines”.

For `COc1ccc(-c2ccc3ncc4c(c3c2)n(-c2ccc(N3CCNCC3)c(C(F)(F)F)c2)c(=O)n4C)cn1` [NVP-BGT226], the “Effect on FLC PDX cells in vitro (dose response, normalized percent survival)” value is reported as “potency against all FLC PDX”.

Turning to `COc1cc(Nc2ncc3c(n2)-c2ccc(Cl)cc2C(c2c(F)cccc2OC)=NC3)ccc1C(=O)O` [alisertib], the “Effect on FLC PDX cells in vitro (dose response, normalized percent survival)” value was “no effect”.

In the case of `COc1ccc(-c2nc(N3CCOCC3)c3sc(CN(C)c4ncc(C(=O)NO)cn4)cc3n2)cn1` [fimepinostat], the “Effect on FLC PDX cells in vitro (dose response, normalized percent survival)” value was “affected FLC1,3,4”.

For `CCc1c2c(nc3ccc(OC(=O)N4CCC(N5CCCCC5)CC4)cc13)-c1cc3c(c(=O)n1C2)COC(=O)[C@]3(O)CC` [irinotecan], the “Effect on FLC PDX cells in vitro (dose response, normalized percent survival)” value is recorded as “no effect”.

Staying with this series, now noted: FLC PDX cells compared with PHH.
Consider `CNC(=O)c1cccc(-c2ccc3c(N4CCOC[C@@H]4C)nc(N4CCOC[C@@H]4C)nc3n2)c1` [AZD2014], for which the “Therapeutic window for FLC over PHH” value is on record as “no therapeutic window”.

With `Cc1c(CN2CCN(C(=O)[C@H](C)O)CC2)sc2c(N3CCOCC3)nc(-c3cnc(N)nc3)nc12` [GDC0980], the “Therapeutic window for FLC over PHH” value is “no therapeutic window”.

Take `COc1cccc2cc(-c3nc([C@H]4CC[C@H](C(=O)O)CC4)n4ncnc(N)c34)[nH]c12` [OSI-027]: the “Therapeutic window for FLC over PHH” value is on record as “no therapeutic window”.

As for `CNC(=O)c1cc(Oc2ccc(NC(=O)Nc3ccc(Cl)c(C(F)(F)F)c3)cc2)ccn1` [Sorafenib], the “Therapeutic window for FLC over PHH” value was “no therapeutic window”.

Consider `CNC(=O)Nc1ccc(-c2nc(N3CC4CCC(C3)O4)c3cnn(C4CCC5(CC4)OCCO5)c3n2)cc1` [WYE-125132], for which the “Therapeutic window for FLC over PHH” value is recorded as “no therapeutic window”.

Consider `CNC(=O)c1cc(Oc2ccc(NC(=O)Nc3ccc(Cl)c(C(F)(F)F)c3)c(F)c2)ccn1` [regorafenib], for which the “Therapeutic window for FLC over PHH” value was “no therapeutic window”.

Staying with this series, now noted: ranked by average −log10EC50 for FLC1-5 minus −log10EC50 for PHH.
For `CN(NC(=O)CC(=O)NN(C)C(=S)c1ccccc1)C(=S)c1ccccc1` [Elesclomol], the “Efficacy ranking in the screen” value is reported as “sixth”.

Turning to `Clc1ccc(N/N=C(\c2ccccc2)c2ccccn2)nc1` [JIB-04], the “Efficacy ranking in the screen” value is “second”.

Take `Cc1cc(OCc2nnc(SC3CCCC3)n2-c2cccnc2)ccc1-c1ccc(S(C)(=O)=O)cc1` [NMS873]: the “Efficacy ranking in the screen” value is given as 72.

Take `CC(=O)c1cc([N+](=O)[O-])c(Sc2cccc(Cl)c2Cl)s1` [P5091]: the “Efficacy ranking in the screen” value was 38.

As to `COc1ccc(-c2nc(N3CCOCC3)c3sc(CN(C)c4ncc(C(=O)NO)cn4)cc3n2)cn1` [fimepinostat], the “Efficacy ranking in the screen” value is given as 22.

As for `CC1(C)CCC(c2ccc(Cl)cc2)=C(CN2CCN(c3ccc(C(=O)NS(=O)(=O)c4ccc(N[C@H](CCN5CCOCC5)CSc5ccccc5)c(S(=O)(=O)C(F)(F)F)c4)cc3)CC2)C1` [navitoclax], the “Efficacy ranking in the screen” value was “fifth”.

The series is the same for the next values; noted with them: ranked by average −log10EC50 for FLC1-5 minus −log10EC50 for PHH; listed as Navitoclax.
`CC1(C)CCC(c2ccc(Cl)cc2)=C(CN2CCN(c3ccc(C(=O)NS(=O)(=O)c4ccc(N[C@H](CCN5CCOCC5)CSc5ccccc5)c(S(=O)(=O)C(F)(F)F)c4)cc3)CC2)C1` [navitoclax]: the “Efficacy ranking in the screen” value is reported as 5.

Staying with this series, now noted: read-out: EC50 against FLC PDX in vitro; across all FLC PDX lines, 72 h.
For `Clc1ccc(N/N=C(\c2ccccc2)c2ccccn2)nc1` [JIB-04], the pEC50 was 6.70 to 7.70.

For a further series, the system named is cells dissociated from PDX FLC1 and FLC5. Description: Primary high throughput screen, 1μM, 72 h. Format: cell-based, human. As to conditions: pass = survival <60%.
As for `COc1ccc(C[C@H](NC(=O)[C@H](C)NC(=O)CN2CCOCC2)C(=O)N[C@@H](Cc2ccccc2)C(=O)C2(C)CO2)cc1` (stereo in doubt) [ONX-0914], the “Result in primary screen (normalized percent survival)” value is given as “did not see any effect”.

`Cc1cc(C(=O)NOCCO)c(Nc2ccc(I)cc2F)n(C)c1=O` [AZD8330]: the “Result in primary screen (normalized percent survival)” value was “None”.

Turning to `CN(C)Cc1cccc(N/C(=C2\C(=O)Nc3cc(C(N)=O)ccc32)c2ccccc2)c1` [BIX02188], the “Result in primary screen (normalized percent survival)” value is “None”.

In the case of `CN(C)Cc1cccc(N/C(=C2\C(=O)Nc3cc(C(=O)N(C)C)ccc32)c2ccccc2)c1` [BIX02189], the “Result in primary screen (normalized percent survival)” value was “None”.

As to `CC(=O)O/N=C1\C(=O)N(Cc2cc(Cl)ccc2Cl)c2ccc(Cl)cc21` [LDN-57444], the “Result in primary screen (normalized percent survival)” value is given as “did not see any effect”.

In the case of `CC(C)C[C@H](NC(=O)CNC(=O)c1cc(Cl)ccc1Cl)B1OC(=O)C(CC(=O)O)(CC(=O)O)O1` [MLN9708], the “Result in primary screen (normalized percent survival)” value is recorded as “did not see any effect”.

With `COc1cccc(-c2cc(=O)c3ccccc3o2)c1N` [PD98059], the “Result in primary screen (normalized percent survival)” value is “None”.

Regarding `O=C(NOCC1CC1)c1ccc(F)c(F)c1Nc1ccc(I)cc1Cl` [PD184352], the “Result in primary screen (normalized percent survival)” value is recorded as “None”.

In the case of `Cc1cc(I)ccc1Nc1c(C(=O)NOCC2CC2)cc(F)c(F)c1F` [PD198306], the “Result in primary screen (normalized percent survival)” value is “None”.

Regarding `N#C/C(=C(/N)Sc1ccc(N)cc1)c1ccccc1C(F)(F)F` [SL-327], the “Result in primary screen (normalized percent survival)” value is reported as “None”.

For the compound `Cn1c(=O)c(F)c(Nc2ccc(I)cc2F)c2c(=O)n(C[C@@H](O)CO)cnc21` [TAK-733], the “Result in primary screen (normalized percent survival)” value is recorded as “None”.

Consider `N#CC(=C(/N)Sc1ccccc1N)/C(C#N)=C(/N)Sc1ccccc1N` [U0126], for which the “Result in primary screen (normalized percent survival)” value was “None”.

`CC(C)(C#N)c1cc(Cn2cncn2)cc(C(C)(C)C#N)c1` [anastrozole]: the “Result in primary screen (normalized percent survival)” value is “did not pass our primary screen”.

Take `COc1cc(C[C@H]2C(=O)OC[C@@H]2Cc2ccc(OC)c(OC)c2)ccc1O` [arctigenin]: the “Result in primary screen (normalized percent survival)” value is reported as “None”.

Take `Cn1cnc2c(F)c(Nc3ccc(Br)cc3F)c(C(=O)NOCCO)cc21` [binimetinib]: the “Result in primary screen (normalized percent survival)” value was “None”.

With `CC(C)C[C@H](NC(=O)[C@H](Cc1ccccc1)NC(=O)c1cnccn1)B(O)O` [bortezomib], the “Result in primary screen (normalized percent survival)” value is on record as “did not see any effect”.

On to `N.N.O=C([O-])C1(C(=O)[O-])CCC1.[Pt+2]` [carboplatin], for which the “Result in primary screen (normalized percent survival)” value was “no to minimal activity”.

For the compound `N.N.[Cl][Pt][Cl]` [cisplatin], the “Result in primary screen (normalized percent survival)” value is given as “no to minimal activity”.

For the compound `O=C(c1ccc(F)c(F)c1Nc1ccc(I)cc1F)N1CC(O)([C@@H]2CCCCN2)C1` [cobimetinib], the “Result in primary screen (normalized percent survival)” value is “None”.

Turning to `CC(C)(C)OC(=O)N[C@H]1CCCCC/C=C\[C@@H]2C[C@@]2(C(=O)NS(=O)(=O)C2CC2)NC(=O)[C@@H]2C[C@@H](OC(=O)N3Cc4cccc(F)c4C3)CN2C1=O` [danoprevir], the “Result in primary screen (normalized percent survival)” value is reported as “did not see any effect”.

Turning to `CCC[C@H](NC(=O)/C(C#N)=C/c1cccc(Br)n1)c1ccccc1` [degrasyn], the “Result in primary screen (normalized percent survival)” value is given as “did not see any effect”.

Regarding `CC(C)C[C@H](NC(=O)[C@@H](NC(=O)c1cccc(-c2ccccc2)n1)[C@@H](C)O)B(O)O` [delanzomib], the “Result in primary screen (normalized percent survival)” value is “did not see any effect”.

For `COc1cc([C@@H]2c3cc4c(cc3[C@@H](O[C@@H]3O[C@@H]5CO[C@@H](C)O[C@H]5[C@H](O)[C@H]3O)[C@H]3COC(=O)[C@H]23)OCO4)cc(OC)c1O` [etoposide], the “Result in primary screen (normalized percent survival)” value is “no to minimal activity”.

Consider `C=C1C[C@@H]2[C@H](CC[C@]3(C)C(=O)CC[C@@H]23)[C@@]2(C)C=CC(=O)C=C12` [exemestane], for which the “Result in primary screen (normalized percent survival)” value was “did not pass our primary screen”.

As for `N#Cc1ccc(C2CCCc3cncn32)cc1` (stereo not drawn) [fadrozole], the “Result in primary screen (normalized percent survival)” value is listed as “did not pass our primary screen”.

For `O=c1[nH]cc(F)c(=O)[nH]1` [fluorouracil], the “Result in primary screen (normalized percent survival)” value was “no to minimal activity”.

`C[C@]12CCC(=O)C(O)=C1CC[C@@H]1[C@@H]2CC[C@]2(C)C(=O)CC[C@@H]12` [formestane]: the “Result in primary screen (normalized percent survival)” value is recorded as “did not pass our primary screen”.

For the compound `Nc1ccn([C@@H]2O[C@H](CO)[C@@H](O)C2(F)F)c(=O)n1` [gemcitabine], the “Result in primary screen (normalized percent survival)” value is listed as “no to minimal activity”.

Consider `O=P1(NCCCl)OCCCN1CCCl` (stereo not drawn) [ifosfamide], for which the “Result in primary screen (normalized percent survival)” value is “no to minimal activity”.

Consider `CC(C)C[C@H](NC(=O)CNC(=O)c1cc(Cl)ccc1Cl)B(O)O` [ixazomib], for which the “Result in primary screen (normalized percent survival)” value was “did not see any effect”.

As to `N#Cc1ccc(C(c2ccc(C#N)cc2)n2cncn2)cc1` [letrozole], the “Result in primary screen (normalized percent survival)” value was “did not pass our primary screen”.

As for `O=C(NOC[C@H](O)CO)c1ccc(F)c(F)c1Nc1ccc(I)cc1F` [mirdametinib], the “Result in primary screen (normalized percent survival)” value is “None”.

Consider `O=C1[O][Pt]2([NH][C@@H]3CCCC[C@H]3[NH]2)[O]C1=O` [oxaliplatin], for which the “Result in primary screen (normalized percent survival)” value is “no to minimal activity”.

Consider `O=C(NC[C@H](O)CO)c1ccncc1Nc1ccc(I)cc1F` [pimasertib], for which the “Result in primary screen (normalized percent survival)” value was “None”.

For `Cn1cnc2c(F)c(Nc3ccc(Br)cc3Cl)c(C(=O)NOCCO)cc21` [selumetinib], the “Result in primary screen (normalized percent survival)” value is “None”.

The next series deals with cells dissociated directly from patient tumors (FLC.T6-T11). Description: Direct from patient in vitro screening. Format: cell-based, human. As to conditions: 10μM-10nM, 72h, Cell Titer Glo. Background: ATP-based viability assays read luminescence as a measure of living cells.
In the case of `CONC(=O)[C@H]1[C@@H](O)[C@@]2(O)c3c(OC)cc(OC)cc3O[C@@]2(c2ccc(OC)cc2)[C@@H]1c1ccccc1` [CR-1-31-B], the “Sensitivity of cells tested directly from patients” value was “sensitive”.

The test system of a further series is primary human hepatocytes (PHH). Description: Validation counter-screen on primary human hepatocytes. As to conditions: read-out: EC50 PHH; 72 h.
On to `Clc1ccc(N/N=C(\c2ccccc2)c2ccccn2)nc1` [JIB-04], for which the pEC50 is less than 5.00.

Staying with this series, now noted: up to 10 μM, 72 h.
As for `CONC(=O)[C@H]1[C@@H](O)[C@@]2(O)c3c(OC)cc(OC)cc3O[C@@]2(c2ccc(OC)cc2)[C@@H]1c1ccccc1` [CR-1-31-B], the “Effect on PHH (dose response, normalized percent survival)” value is listed as “no effect”.
